From article PMC10531168, “Development of Stable Amino-Pyrimidine–Curcumin Analogs: Synthesis, Equilibria in Solution, and Potential Anti-Proliferative Activity” (International Journal of Molecular Sciences, 2023)
Read-outs that look alike come from different tables or passages of the source.

Tests used:
HT29 cells [1] = test system: HT29 cells; parameters: method as in PMID 27614381; details: read-out: GI50 (printed IG50), HT29 cell proliferation; cited from earlier work
[2] = UV-Vis pH-metric spectrophotometric titration, protonation constants (HypSpec); assay type: physicochemical; details: 298 K; for pKa: aqueous solution with <2% v/v methanol
Description: Pyrimidine derivatives can be considered weak bases, and the pyrimidine nitrogens are protonated in extremely acid conditions (pH < 1), while the NH2 group has a pKa around 5 depending on the electronic effects of the substituents on the aromatic rings. As a consequence, the amino-pyrimidine moiety is in the neutral form at physiological pH (7.4). Among the synthesized compounds, MPY1, MPY3, and PY1 are characterized by additional acid/base moieties, particularly a phenolic group in the meta position for MPY1 and PY1 and an additional primary aliphatic amine for MPY3. To estimate the protonation constants, UV-visible spectroscopy was preferred over potentiometry since the lower concentration range that is required allows it to work in an aqueous medium with a negligible percentage of methanol (<2% v/v). Figure 3 reports the UV-Vis pH-metric titration of MPY1 in the pH range of 2–11. In extremely acid conditions (pH 2, red spectrum), the amine group on the pyrimidine ring is fully protonated, and the molecule is positively charged (H2L^+). The maximum absorbance is observed at 400 nm, with a shoulder at 500 nm. […] Finally, in basic conditions (pH 11, blue spectrum) the phenolic group is deprotonated, and a negatively charged species is observed (L^−) with λmax at 406 nm. […] By plotting the absorbance value vs. pH at λmax, a titration curve is observed ([…]), with two equivalent points around pH = 5 and pH = 9. […] PY1 (Figure S3) is fully protonated below pH 5 (H3L+) and negatively charged in basic conditions (HL^−, L^2−). To estimate protonation constants and pKa values, spectrophotometric data were elaborated using Hypspec, and the logβ values, together with pKa, are reported in Table 1.
To perform spectrophotometric titrations, ligands (denoted generally as L in the following) were dissolved in methanol to give a mother solution (2.50 mM) that was then diluted in water to a final volume of 25 mL in order to obtain a 25/50 μM concentration, depending on the compound, in order to have a maximum absorbance in a range of 0.4–1. The pH (initial value ~5) was varied by adding small amounts (1 μL) of concentrated NaOH/HCl (4 M) in order to investigate the spectral behavior of the 2–11 pH range. In these conditions, the volume variations were negligible. A constant ionic strength (NaNO3, 0.1 M) was maintained in all the experiments. The overall protonation constants (βqr) are defined by the following equations:qL^l− + rH^+ ⇌ [LqHr]^(r − ql)(1) (2) βqr=LqHr^r − ql/L^−l]^q · H^+]^r where L is the ligand in the completely dissociated form and H is a proton. βqr values were refined from spectrophotometric data using least-squares calculations in HypSpec. The results of least-squares calculations include the standard deviations and correlation coefficients of the refined parameters. The quantities were obtained by performing error propagation calculations from the experimental errors on the parameters. The stability constant refinement furnishes least-squares estimates of the standard deviation, σ, of the stability constant, β. The error on logβ is calculated as follows: σ(logβ) = [log(β + σ) − log(β − σ)]/2, as previously reported.

LNCaP cells [3] = assay: Cell viability assay (Presto Blue), 48 h; assay type: cell-based, human; details: 48 h treatment, mean of three independent experiments, n.a. = not active at tested concentrations (≤100 µM)
Description: (§1) To determine the anti-proliferative activity of the compounds on cancer cells, we performed dose–response treatments for 48 h on androgen-sensitive and androgen-insensitive PCa cells (LNCaP and PC3, respectively), as well as CRC cell lines (HCT116 and HT29).
(§2) The human colon cell lines, HT29 (ATCC Cat# HTB-38) and HCT116 (ATCC Cat# CCL-247), were grown in DMEM High-Glucose Medium (Biowest, Nuaillé, France), while the human prostate cell lines, PC3 (ATCC Cat# CRL-1435) and LNCaP (ATCC Cat# CRL-1740), were grown in Ham’s F12 (Biowest, Nuaillé, France) and RPMI 1640 (Biowest, Nuaillé, France), respectively. All media were supplemented with 2 mM glutamine, 100 IU/mL penicillin, 100 μg/mL streptomycin, and 10% fetal bovine serum (FBS, Gibco, Fisher Scientific Italia, Segrate (MI), Italia)). The cells were grown at 37 °C in a humified 5% CO2 atmosphere.
(§3) HCT116, HT29, PC3, or LNCaP cells were seeded into a 96-well plate at a density of 5000 cells/well. Cells were treated with eight different concentrations of pyrimidine derivates and curcumin for 48 h, at concentrations starting at 30 μM with 2-fold serial dilutions for curcumin and starting at 100 μM with 3-fold serial dilutions for pyrimidine derivates. Cell viability was measured using Presto Blue cell viability reagent (#A13261, Thermo Fisher Scientific, Waltham, MA, USA), according to the manufacturer’s protocol. The concentration at which cellular growth is inhibited by 50% (GI50) was determined.

PC3 cells [4] = assay: Cell viability assay (Presto Blue), 48 h; assay type: cell-based, human; details: PC3, 48 h treatment, mean of three independent experiments, n.a. = not active at tested concentrations (≤100 µM)
Description: as §1, §2, §3

[5] = parameters: method as in doi:10.1016/S0020-1693(01)00687-9; details: cited from earlier work
HCT116 cells [6] = assay: Cell viability assay (Presto Blue), 48 h; assay type: cell-based; details: Homo sapiens, HCT-116; HCT116, 48 h treatment, mean of three independent experiments; n.a. = not active at tested concentrations (≤100 µM)
Description: as §1, §2, §3

HT29 cells [7] = assay: Cell viability assay (Presto Blue), 48 h; assay type: cell-based; details: Homo sapiens, HT-29; HT29, 48 h treatment, mean of three independent experiments; n.a. = not active at tested concentrations (≤100 µM)
Description: as §1, §2, §3

LNCaP cells [8] = assay: Cell cycle analysis (propidium iodide cytofluorimetry); assay type: cell-based, human; details: 48 h at GI50 dose; for % cells SubG1 (apoptotic cells): DMSO control 0.9; for % cells S: DMSO control 12.5; for % cells G2/M: DMSO control 18.4; for % cells G0/G1: DMSO control 65.1
Description: (§4) To further investigate the effects of PY1 and PY3 on cell growth, we analyzed the cell cycle progression of LNCaP cells treated at GI50 doses for 48 h (Figure 6 and Figure S4). […] Compared to curcumin, PY1 induced a similar but enhanced effect on the cell cycle, with apoptosis and S-phase being 9.6% and 6.4%, respectively. […] This effect was similarly observed in PC3 and HCT116 cells, with G2/M cells increasing from 14.6% to 62% in PC3 and from 17% to 33% in HCT116 cells (Figure S4).
(§5) Cells were seeded into a 24-well plate at a density of 35,000 cells/well and harvested after 48 h of treatment at GI50 concentrations. Cell cycle analysis of cells stained with propidium iodide solution (propidium iodide 25 µg/mL, Na-Citrate 3.4 mM, NaCl 9.65 mM, NP-40 0.03%) was performed using an Attune Next cytofluorimeter (Thermo Fisher Scientific, Waltham, MA, USA). DMSO was used as the control. Statistical analysis was performed with GraphPad PRISM 6 software (GraphPad Prism), using two-way ANOVA as specified in the figure legends. Graph represents means ± standard errors of the mean (SEM), n = 3. Data were considered to be statistically significant if p < 0.05 (*), p < 0.01 (**), p < 0.001(***), and p < 0.0001 (****).

PC3 cells [9] = assay: as above; assay type: cell-based, human; details: PC3, 48 h at GI50 dose; control 14.6%
Description: as §4, §5

HCT116 cells [10] = assay: as above; assay type: cell-based, human; details: HCT116, 48 h at GI50 dose; control 17%
Description: as §4, §5

[11] = aqueous solution, spectrophotometric data, HypSpec
[12] = logβ11 (MPY1, MPY3) or logβ12 − logβ11 (PY1), read-out: pKa2
[13] = logβ12 − logβ11 (MPY1, MPY3) or logβ13 − logβ12 (PY1), read-out: pKa1

Row | logβ11 (overall protonation constant) [2, 11] | logβ12 (overall protonation constant) [2, 11] | pKa [2, 12] | pKa [2, 13] | GI50 (LNCaP cells [3]; Homo sapiens, 48 h) | GI50 (HCT116 cells [6]) | GI50 (HT29 cells [7]) | GI50 (PC3 cells [4]; Homo sapiens, PC-3, 48 h) | Molecule | % cells SubG1 (apoptotic cells) (LNCaP cells [8]) | % cells S (LNCaP cells [8]) | % cells G2/M (LNCaP cells [8]) | % cells G0/G1 (LNCaP cells [8]) | other results
1 |  |  |  |  |  |  |  |  | COc1ccc(/C=C/C(=O)CC(=O)/C=C/c2ccc(OC)c(OC)c2)cc1OC [DiMC, bis-dimethoxycurcumin] |  |  |  |  | GI50 (HT29 cells [1]): 43.4 µM
2 | 8.99 ± 0.01 | 13.72 ± 0.01 | 8.99 ± 0.01 | 4.73 ± 0.02 | 73.9 ± 9.9 µM |  |  |  | COc1cc(/C=C/c2cc(C)nc(N)n2)ccc1O [MPY1, 4-[(E)-2-(2-amino-6-methylpyrimidin-4-yl)ethenyl]-2-methoxyphenol] |  |  |  |  | 
3 |  |  |  |  |  |  |  |  | 4,6-bis[(E)-2-(3-methoxyphenyl)ethenyl]pyrimidin-2-amine [PY4] |  |  |  |  | GI50 (PC3 cells [4]): 82.8 ± 23.4 µM
4 |  |  |  |  | > 30 µM | 13.6 ± 2.9 µM | > 30 µM | 23.9 ± 0.4 µM | COc1cc(/C=C/C(=O)CC(=O)/C=C/c2ccc(O)c(OC)c2)ccc1O [Curcumin, (1E,6E)-1,7-bis (4-hydroxy-3-methoxyphenyl)-1,6-heptadiene-3,5-dione] | 7.2% | 9.7% | 22.3% | 58.4% | pKa of keto-enol moiety [5]: 8.56
5 | 8.62 ± 0.01 | 13.04 ± 0.01 | 8.62 ± 0.01 | 4.43 ± 0.02 | 68.8 ± 21.7 µM | 98 ± 13.6 µM |  |  | COc1cc(/C=C/c2cc(C)nc(N)n2)ccc1OCCCN [MPY3, 4-{(E)-2-[4-(3-aminopropoxy)-3-methoxyphenyl]ethenyl}-6-methylpyrimidin-2-amine] |  |  |  |  | 
6 | 10.27 ± 0.03 | 19.30 ± 0.02 | 9.04 ± 0.05 | 4.86 ± 0.07 | ~24 µM | 19.9 ± 3.3 µM | 45.3 ± 4.1 µM | ~24 µM | COc1cc(/C=C/c2cc(/C=C/c3ccc(O)c(OC)c3)nc(N)n2)ccc1O [PY1, 4,4′-{(2-aminopyrimidine-4,6-diyl)di[(E)ethene-2,1-diyl]}bis(2-methoxyphenol)] | 9.6% | 6.4% | 24.8% | 57.8% | logβ13 (overall protonation constant) [2, 11]: 24.17 ± 0.05; pKa ([2]; pKa3 = logβ11, read-out: pKa3): 10.27 ± 0.03; GI50 (PC3 cells [4]): 23.5 ± 9.7 µM; GI50 (LNCaP cells [3]): 24.1 ± 8.5 µM
7 |  |  |  |  | 12.1 ± 2 µM | 37.9 ± 11.6 µM | 19.7 ± 1.1 µM | 14.7 ± 0.9 µM | COc1ccc(/C=C/c2cc(/C=C/c3ccc(OC)c(OC)c3)nc(N)n2)cc1OC [PY3, 4,6-bis[(E)-2-(3,4-dimethoxyphenyl)ethenyl]pyrimidin-2-amine] | 4.7% | 4.7% | 54.6% | 32.8% | % cells G2/M (PC3 cells [9]): 62%; % cells G2/M (HCT116 cells [10]): 33%
8 |  |  |  |  | 73.1 ± 14 µM |  |  | 84.4 ± 0.1 µM | COc1ccc(/C=C/c2cc(C)nc(N)n2)cc1OC [MPY2, 4-[(E)-2-(3,4-dimethoxyphenyl)ethenyl]-6-methylpyrimidin-2-amine] |  |  |  |  | 
